Assay results published in patent US20130164347A1, “MULTILAYER POLYMERIC DRUG DELIVERY SYSTEM” (priority 2011, published 2013).

What was measured:
[1] = In-vitro release of 5-FU from partially encapsulated multilayer polymeric films
Method: In-Vitro release of 5-Fluoro-Uracil (5-FU) has been quantified over time from Partially Encapsulated Multilayer Polymeric films.
The resulting test articles, 2.5 mm diameter×1.25 mm high, were immersed in a PBS solution supplemented by 2 percent FBS onto a shaker in an incubator at 37 degrees Celsius. Release of 5-FU was quantified by HPLC-UV as follows: after filtration, aliquots were injected onto an Agilent 1100 column (50×4.6 mm×3 um with guard column). The 5-FU detection was performed via a UV Detector (Wavelength: 265 nm). The flow rate was 1.0 mL/min. The mobile phase was a mixture of TFA (0.1 percent) and Acetonitrile.

[2] = In-vitro release of bimatoprost from fully encapsulated multilayer polymeric films; type: physicochemical; conditions: for release profile of bimatoprost: PBS + 2 percent FBS, 37 degrees Celsius
Method: In Vitro release studies were performed using the fully encapsulated polymeric films (wherein the carrier discs are fully encapsulated within the surrounding barrier layers) containing bimatoprost as prepared in Example 6.

[3] = Thermal decomposition of bioactive agent; type: physicochemical
[4] = partially encapsulated film, 30 percent w/w
[5] = fully encapsulated film laminated at 140 degrees Fahrenheit (60 degrees Celsius)

Row | release profile of bimatoprost ([2]; fully encapsulated film laminated at 131 degrees Fahrenheit (55 degrees Celsius)) | period of no or undetectable release [2, 5] | release profile of bimatoprost [2, 5] | drug released in the first 24 hours ([2]; monolayer 2 mm diameter carrier film compression molded at 152 degrees Fahrenheit (67 degrees Celsius)) | decomposition temperature [3] | Compound | release profile of 5-FU ([1]; fully encapsulated films with no adhesive layers) | burst duration [1, 4] | rest period after burst [1, 4] | start of delayed sustained release [1, 4] | release profile of 5-FU ([1]; partially encapsulated film, 30 percent w/w, 2.5 mm disk, PBS + 2 percent FBS, 37 degrees Celsius)
1 |  |  |  |  |  | O=c1[nH]cc(F)c(=O)[nH]1 [5-FU, 5-Fluoro-Uracil] | delayed sustained release | 2 days | approximately 9 days | ~11 days | bimodal release profile
2 | zero-order release | 10 days | delayed sustained release | 99% | 70 degrees Celsius | CCNC(=O)CCC/C=C\C[C@@H]1[C@@H](/C=C/[C@@H](O)CCc2ccccc2)[C@H](O)C[C@@H]1O [bimatoprost] |  |  |  |  | 
